Ten compounds from patent US11691962B2 (eXIthera Pharmaceuticals, Inc., priority 2018, dated 2023) can be followed below.

A word on the solubility: it is the dissolved amount per volume that the medium holds. A low value points to little dissolved substance. A word on the Papp A→B: it is how fast a substance crosses the layer from the apical side. The low end stands for slow passage, the high end for fast passage. The Papp B→A is how fast a substance crosses the layer from the basolateral side.

In brackets after ≈: the same amount, converted by molar mass.

The nature of series [1]: Aqueous solubility in PBS by HPLC-UV/VIS. In kind it is physicochemical. The conditions noted are these: phosphate buffered saline, aqueous buffer, kinetic from dmso stock; PBS pH 7.4, 2% DMSO, 24 h at room temperature. The method, then: The following procedure was used to determine the aqueous solubility of a test compound in phosphate buffered saline (PBS-NaCl 137 mM, KCl 2.7 mM, Na2HPO4 8.1 mM, KH2PO4 1.5 mM, pH 7.4) in 96-well plate format by HPLC-UV/VIS analysis. The test compound was prepared at 200 μM in PBS from a 10 mM DMSO stock solution. The final DMSO concentration was 2%. The PBS buffer samples were mixed thoroughly followed by incubation at room temperature for 24 h. At the end of the incubation, the PBS buffer samples were centrifuged and supernatants analyzed by HPLC. The aqueous solubility (μM) of the test compound in PBS was determined by comparing the peak area of the principal peak in the calibration standard (200 μM) with the peak area of the corresponding peak in each of the PBS samples. The range of the assay was approximately 0.5 μM to 200 μM. The reference compounds used in each assay were metoprolol, rifampicin, ketoconazole, phenytoin, haloperidol, simvastatin, diethylstilbestrol, and tamoxifen ranking from fully soluble (200 μM) to poorly soluble (<1 μM).

Series [2] can be described thus: Caco-2 cell permeability assay. In kind it is in vitro ADME, human. The following applies: human, 37° C.; for Papp A→B at 60 min, 10 μM: Caco-2, apical to basolateral; for Papp B→A at 40 min, 10 μM: Caco-2, basolateral to apical. The method, then: The following procedure was used to determine the ability of a test compound to cross Caco-2 cells (human intestinal epithelial cells derived from a colorectal adenocarcinoma). The cells were seeded at 1×10^5 cells/cm^2 in 96-well Multiscreen™ plates (Millipore). Permeability assays were performed with the cells at days 21-25 post-seeding. Cells are typically used for 15 consecutive passages in culture.
This assay can be performed in either the apical to basolateral (A-B) or basolateral to apical (B-A) direction. The test compound was prepared at 10 μM in HBSS-MES (pH 6.5) or HBSS-HEPES (pH 7.4) with a final DMSO concentration of 1%. The working solution was then centrifuged and the supernatant added to the donor side. The assay plate was incubated at 37° C. with gentle shaking for 60 min or 40 min for the A-B or B-A assay, respectively. Samples were aliquoted from the donor side at time zero and the end point, and from the receiver side at the end point.
Reference compounds, propranolol (highly permeable), labetalol (moderately permeable), ranitidine (poorly permeable), and colchicine (P-glycoprotein substrate) were included in each assay.
Samples are analyzed by HPLC-MS/MS using selected reaction monitoring. The HPLC system consists of a binary LC pump with autosampler, a C-18 column, and a gradient.
The apparent permeability coefficient (Papp) of the test compound (Equation 2) and its recovery (Equation 3) are calculated as follows:
[formula] wherein A is the surface area of the cell monolayer (0.11 cm^2), C is concentration of the test compound expressed as peak area, D denotes donor, and R is receiver. “0”, “mid,” and “end” denote time at zero, mid-point, and end of the incubation, respectively. Δt is the incubation time. V is the volume of the donor or receiver.
This is most likely due to non-specific binding or degradation.

The target in another series is Factor Xa (Homo sapiens (Human), UniProt P00742). The series can be described thus: Dose response assay for protease inhibitors: Factor Xa. The following applies: selectivity, Factor Xa over Factor XIa. In kind it is biochemical. In a few lines:
(§1)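 Fluorogenic AMC-peptide cleavage in 20 mM Hepes pH 7.4, 150 mM NaCl, 0.02% Tween 20; 100 μM stock substrate dilution (Glp-Pro-Arg-AMC for thrombin/trypsin; Pro-Phe-Arg-AMC or Boc-Leu-Gly-Arg-AMC for Factor Xa). Enzyme diluted to 0.5 nM, added last to two-fold compound series; kinetic read at 30° C, 30 min (Factor Xa 60 min); IC50 fitted.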

For the next series, the system named is Trypsin. The series can be described thus: Dose response assay for protease inhibitors: trypsin. The series is classed as biochemical. The following applies: selectivity, trypsin over Factor XIa. In a few lines: as §1
The target of another series is Thrombin (Homo sapiens (Human), UniProt P00734). As to the kind of experiment: Dose response assay for protease inhibitors: thrombin. In kind it is biochemical. The following applies: selectivity, thrombin over Factor XIa. In a few lines:
as §1

Sequence of Factor Xa (P00742 235-488): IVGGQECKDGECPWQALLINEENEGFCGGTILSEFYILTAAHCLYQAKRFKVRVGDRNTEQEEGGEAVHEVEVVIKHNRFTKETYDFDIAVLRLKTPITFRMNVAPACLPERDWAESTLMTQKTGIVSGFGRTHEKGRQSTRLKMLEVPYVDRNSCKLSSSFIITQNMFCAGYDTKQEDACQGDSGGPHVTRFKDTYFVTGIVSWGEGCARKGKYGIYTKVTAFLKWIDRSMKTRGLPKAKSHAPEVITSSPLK
Sequence of Factor Xa (P00742 41-179 partner): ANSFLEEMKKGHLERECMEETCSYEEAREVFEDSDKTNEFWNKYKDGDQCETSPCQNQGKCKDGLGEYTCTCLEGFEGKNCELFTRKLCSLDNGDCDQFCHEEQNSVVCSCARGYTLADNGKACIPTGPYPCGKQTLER

In turn, `CC[C@@H](NC(=O)N1C(=O)[C@H](Cc2ccnc(N)c2)[C@H]1C(=O)N(C)c1nccn1C)c1cccc(Cl)c1` [Compound 1-35, (2S,3R)-3-((2-aminopyridin-4-yl)methyl)-N2-(1-methyl-1H-imidazol-2-yl)-N1-((R)-1-(3-chlorophenyl)propyl)-N2-methyl-4-oxoazetidine-1,2-dicarboxamide] returned a solubility at 24 h in series [1] above 100 µM. Besides, in series [2], the Papp A→B at 60 min, 10 μM is below 10 ×10⁻⁶ cm/s and the Papp B→A at 40 min, 10 μM lay in the range of 31 to 50 ×10⁻⁶ cm/s. Moreover, the “Ratio: FXa/FXIa” value at Factor Xa is “H (“H” indicates 101-1000)”. In addition, the “Ratio: Trypsin/FXIa” value in the series with Trypsin was “G (“G” indicates 1-100)”. At Thrombin, the “Ratio: Thrombin/FXIa” value is given as “H (“H” indicates 101-1000)”.
For `CC[C@@H](NC(=O)N1C(=O)[C@H](Cc2ccnc(NC)c2)[C@H]1C(=O)N(C)c1nccn1C)c1cccc(Cl)c1` [Compound 1-41, (2S,3R)-3-((2-methylaminopyridin-4-yl)methyl)-N2-(1-methyl-1H-imidazol-2-yl)-N1-((R)-1-(3-chlorophenyl)propyl)-N2-methyl-4-oxoazetidine-1,2-dicarboxamide], the solubility at 24 h in series [1] is above 100 µM. In series [2], this compound displayed an apparent permeability from apical to basolateral (Papp A→B) at 60 min, 10 μM below 10 ×10⁻⁶ cm/s and a Papp B→A at 40 min, 10 μM of 31 to 50 ×10⁻⁶ cm/s. Besides, on Factor Xa, the “Ratio: FXa/FXIa” value is given as “I (“I” indicates > 500)”. Also, the “Ratio: Trypsin/FXIa” value in the series on Trypsin was “G (“G” indicates 1-100)”. Further, the “Ratio: Thrombin/FXIa” value on Thrombin is “H (“H” indicates 101-1000)”.
For the compound `CC[C@@H](NC(=O)N1C(=O)[C@H](Cc2cc(C)nc(N)c2)[C@H]1C(=O)N(C)c1nccn1C)c1cccc(Cl)c1` [Compound 1-43, (2S,3R)-3-((2-amino-6-methylpyridin-4-yl)methyl)-N2-(1-methyl-1H-imidazol-2-yl)-N1-((R)-1-(3-chlorophenyl)propyl)-N2-methyl-4-oxoazetidine-1,2-dicarboxamide], the solubility at 24 h in series [1] was above 100 µM. Moreover, in series [2], the Papp A→B at 60 min, 10 μM is below 10 ×10⁻⁶ cm/s and the Papp B→A at 40 min, 10 μM was in the range of 11 to 30 ×10⁻⁶ cm/s. Also, the “Ratio: FXa/FXIa” value on Factor Xa is reported as “I (“I” indicates > 500)”. In addition, in the series with Trypsin, the “Ratio: Trypsin/FXIa” value is “G (“G” indicates 1-100)”. Besides, the “Ratio: Thrombin/FXIa” value at Thrombin was “H (“H” indicates 101-1000)”.
Take `CC[C@@H](NC(=O)N1C(=O)[C@H](Cc2cc(C)nc(NC)c2)[C@H]1C(=O)N(C)c1nccn1C)c1ccccc1` [Compound 1-45, (2S,3R)-3-((2-methylamino-6-methylpyridin-4-yl)methyl)-N2-(1-methyl-1H-imidazol-2-yl)-N1-((R)-1-phenylpropyl)-N2-methyl-4-oxoazetidine-1,2-dicarboxamide]: the solubility at 24 h in series [1] was above 100 µM. For the same compound, in series [2], the Papp A→B at 60 min, 10 μM was 11 to 30 ×10⁻⁶ cm/s and the apparent permeability from basolateral to apical (Papp B→A) at 40 min, 10 μM fell in the range of 31 to 50 ×10⁻⁶ cm/s. In addition, the “Ratio: FXa/FXIa” value on Factor Xa is listed as “I (“I” indicates > 500)”. In addition, in the series with Trypsin, the “Ratio: Trypsin/FXIa” value is on record as “G (“G” indicates 1-100)”. Besides, at Thrombin, the “Ratio: Thrombin/FXIa” value was “H (“H” indicates 101-1000)”.
Turning to `CC[C@@H](NC(=O)N1C(=O)[C@H](Cc2cc(C)nc(NC)c2)[C@H]1C(=O)N(C)c1nccn1C)c1cccc(Cl)c1` [Compound 1-46, (2S,3R)-3-((2-methylamino-6-methylpyridin-4-yl)methyl)-N2-(1-methyl-1H-imidazol-2-yl)-N1-((R)-1-(3-chlorophenyl)propyl)-N2-methyl-4-oxoazetidine-1,2-dicarboxamide], the solubility at 24 h in series [1] was above 100 µM. Besides, in series [2], the Papp A→B at 60 min, 10 μM is 11 to 30 ×10⁻⁶ cm/s and the basolateral-to-apical permeability (Papp B→A) at 40 min, 10 μM lay in the range of 11 to 30 ×10⁻⁶ cm/s. In addition, the “Ratio: FXa/FXIa” value on Factor Xa was “I (“I” indicates > 500)”. The “Ratio: Trypsin/FXIa” value in the series with Trypsin is listed as “G (“G” indicates 1-100)”. At Thrombin, the “Ratio: Thrombin/FXIa” value is recorded as “H (“H” indicates 101-1000)”.
In series [1], `CC[C@@H](NC(=O)N1C(=O)[C@H](Cc2ccnc(N)c2)[C@H]1C(=O)N(C)c1ccn(C)n1)C1CCCCC1` [Compound 1-47, (2S,3R)-3-((2-aminopyridin-4-yl)methyl)-N2-(1-methyl-1H-pyrazol-3-yl)-N1-((R)-1-cyclohexylpropyl)-N2-methyl-4-oxoazetidine-1,2-dicarboxamide] showed a solubility at 24 h above 100 µM. Besides, in series [2], the Papp A→B at 60 min, 10 μM was below 10 ×10⁻⁶ cm/s and the Papp B→A at 40 min, 10 μM was in the range of 31 to 50 ×10⁻⁶ cm/s. For the same compound, the “Ratio: FXa/FXIa” value on Factor Xa is listed as “I (“I” indicates > 500)”. Moreover, the “Ratio: Trypsin/FXIa” value with Trypsin is recorded as “G (“G” indicates 1-100)”. For the same compound, the “Ratio: Thrombin/FXIa” value at Thrombin is “H (“H” indicates 101-1000)”.
In series [1], `C[C@@H](NC(=O)N1C(=O)[C@H](Cc2ccnc(N)c2)[C@H]1C(=O)N(C)c1ccn(C)n1)C1CCCCC1` [Compound 1-50, (2S,3R)-3-((2-aminopyridin-4-yl)methyl)-N2-(1-methyl-1H-pyrazol-3-yl)-N1-((R)-1-cyclohexylethyl)-N2-methyl-4-oxoazetidine-1,2-dicarboxamide] had a solubility at 24 h above 100 µM. In series [2], this compound yielded a Papp A→B at 60 min, 10 μM below 10 ×10⁻⁶ cm/s and an apparent permeability from basolateral to apical (Papp B→A) at 40 min, 10 μM of 31 to 50 ×10⁻⁶ cm/s. In addition, at Factor Xa, the “Ratio: FXa/FXIa” value is reported as “I (“I” indicates > 500)”. Besides, the “Ratio: Trypsin/FXIa” value with Trypsin is listed as “G (“G” indicates 1-100)”. Further, at Thrombin, the “Ratio: Thrombin/FXIa” value was “H (“H” indicates 101-1000)”.
As for `CC[C@@H](NC(=O)N1C(=O)[C@H](Cc2cc(C)nc(N)c2)[C@H]1C(=O)N(C)c1nccn1C)c1ccccc1` [Compound 1-51, (2S,3R)-3-((2-amino-6-methylpyridin-4-yl)methyl)-N2-(1-methyl-1H-imidazol-2-yl)-N1-((R)-1-phenylpropyl)-N2-methyl-4-oxoazetidine-1,2-dicarboxamide], the solubility at 24 h in series [1] is above 100 µM. In series [2], the Papp A→B at 60 min, 10 μM is below 10 ×10⁻⁶ cm/s and the apparent permeability from basolateral to apical (Papp B→A) at 40 min, 10 μM was 31 to 50 ×10⁻⁶ cm/s. Also, the “Ratio: FXa/FXIa” value on Factor Xa is listed as “I (“I” indicates > 500)”. Moreover, the “Ratio: Trypsin/FXIa” value with Trypsin is recorded as “G (“G” indicates 1-100)”. Besides, at Thrombin, the “Ratio: Thrombin/FXIa” value was “H (“H” indicates 101-1000)”.
Turning to `CC[C@@H](NC(=O)N1C(=O)[C@H](Cc2ccnc(N)c2)[C@H]1C(=O)N(C)c1nccn1C)C1CCCCC1` [Compound 1-55, (2S,3R)-3-((2-aminopyridin-4-yl)methyl)-N2-(1-methyl-1H-imidazol-2-yl)-N1-((R)-1-cyclohexylpropyl)-N2-methyl-4-oxoazetidine-1,2-dicarboxamide], the solubility at 24 h in series [1] is above 100 µM. In series [2], the Papp A→B at 60 min, 10 μM was below 10 ×10⁻⁶ cm/s and the Papp B→A at 40 min, 10 μM was 31 to 50 ×10⁻⁶ cm/s. At Factor Xa, the “Ratio: FXa/FXIa” value is “I (“I” indicates > 500)”. Moreover, in the series on Trypsin, the “Ratio: Trypsin/FXIa” value is on record as “G (“G” indicates 1-100)”. Besides, the “Ratio: Thrombin/FXIa” value on Thrombin is “H (“H” indicates 101-1000)”.
On to `CC(C)[C@@H](NC(=O)N1C(=O)[C@H](Cc2ccnc(N)c2)[C@H]1C(=O)N(C)c1ccn(C)n1)C1CCCCC1` [Compound 1-57, (2S,3R)-3-((2-aminopyridin-4-yl)methyl)-N2-(1-methyl-1H-pyrazol-3-yl)-N1-((R)-1-cyclohexyl-2-methylpropyl)-N2-methyl-4-oxoazetidine-1,2-dicarboxamide], for which, in series [1], the solubility at 24 h was in the range of 10 to 100 µM (≈ 4.96 to 49.6 µg/mL). In addition, in series [2], the Papp A→B at 60 min, 10 μM was 11 to 30 ×10⁻⁶ cm/s and the Papp B→A at 40 min, 10 μM lay in the range of 11 to 30 ×10⁻⁶ cm/s. The “Ratio: FXa/FXIa” value at Factor Xa is on record as “I (“I” indicates > 500)”. Also, the “Ratio: Trypsin/FXIa” value with Trypsin is reported as “G (“G” indicates 1-100)”. For the same compound, the “Ratio: Thrombin/FXIa” value on Thrombin is recorded as “H (“H” indicates 101-1000)”.
